# According to US20250100963A1, “SULFONATED AND PHOSPHORYLATED AROMATIC MOLECULES” (Xavier University of Louisiana, priority 2023, published 2025):
# Where two headings read alike, the source gives them in different places.
# Key:
# CatG [1] = target: T1, CatG (Homo sapiens, UniProt P08311); assay: CatG-mediated degradation of laminin, SDS-PAGE; format: biochemical; details: inhibitor 10-1000 μM, CatG 0.8 μM, 60 min
# T1 sequence (P08311 21-244): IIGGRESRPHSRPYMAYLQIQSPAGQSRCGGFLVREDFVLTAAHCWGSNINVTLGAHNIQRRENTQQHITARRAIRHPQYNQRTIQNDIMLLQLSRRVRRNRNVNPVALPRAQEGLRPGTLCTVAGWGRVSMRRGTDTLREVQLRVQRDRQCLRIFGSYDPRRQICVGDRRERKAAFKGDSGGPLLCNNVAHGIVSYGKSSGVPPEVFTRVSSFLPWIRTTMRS
# Procedure: The method further comprises inhibition of CatG-mediated degradation of laminin. Inhibition of CatG cleavage of laminin by sulfonated or phosphorylated compounds was studied using SDSPAGE. Briefly, CatG (0.8 μM) was incubated with different concentrations of the inhibitor (final concentrations; 0 μM, 10 μM, […] and 1000 μM), and laminin (20 μg). Following incubation for 60 min, the samples were quenched using SDS-PAGE loading buffer containing DTT and subjected to electrophoresis on 10% SDS-PAGE pre-cast gels. The gels were visualized by silver staining. […] In fact, based on their in vitro properties, it was reasoned that these inhibitors could protect extracellular matrix components from proteolysis mediated by proteinases activated during the inflammatory process including CatG. Accordingly, the in vitro effect of compound of Formula II on the CatG-mediated proteolysis of laminin, a non-collagenous component of ECM and basement membranes was studied. […] Thus, SDS-PAGE analyses indicate that sulfonated molecule inhibition of CatG is physiologically relevant.
# Inhibition of CatG cleavage of laminin by sulfonated compounds was studied using SDSPAGE. Briefly, CatG (0.8 μM) was incubated with different concentrations of the inhibitor (final concentrations; 0 μM, 10 μM, 100 μM and 1000 μM), and laminin (20 μg). […]
# CatG [2] = target: T1, CatG; assay: Salt-dependent direct inhibition of human CatG; format: biochemical; details: for HS (Hill slope) / IC50 / ΔY (efficacy): pH 7.4, 37° C.; for Ki: estimated by IC50 to Ki conversion, noncompetitive model, read-out: Calculated Ki
# Text: The Ki (μM) values were estimated using an IC50 to Ki conversion equation [19].
# Although the sulfonated and/or phosphorylated compounds-CatG interaction is likely to be electrostatically driven, non-ionic forces may contribute to a significant extent. A significant non-ionic binding energy component increases the interaction specificity because the majority of non-ionic forces, for example, cation—π interactions, H-bonding and others depend strongly on the orientation and the distance of interacting pair of molecules. In contrast, ionic bonds are non-directional and less dependent on distance, which may increase initial interaction but offer less selectivity of recognition. […] The IC50 values were measured spectrophotometrically under various salt concentrations (100 and 200 mM), as described above. […] Subsequently, the corresponding Ki (nM) values were estimated using a formula previously reported following a classical model of noncompetitive enzyme inhibition and the results are reported below. […] Table 4 and FIG. 4.
structure (smiles),measurement,setting,value
"O=C(Nc1cc(C(=O)Nc2ccc(S(=O)(=O)O)cc2S(=O)(=O)O)cc(C(=O)Nc2ccc(S(=O)(=O)O)cc2S(=O)(=O)O)c1)Nc1cc(C(=O)Nc2ccc(S(=O)(=O)O)cc2S(=O)(=O)O)cc(C(=O)Nc2ccc(S(=O)(=O)O)cc2S(=O)(=O)O)c1 [Formula II, 4,4′,4″,4′-((5,5′-(carbonylbis(azanediyl))bis(isophthaloyl))tetrakis(azanediyl))tetrakis(benzene-1,3-disulfonic acid)]",Protection of laminin from cleavage by CatG,CatG [1],protected completely
same,Decrease in potency on 2-fold increase in salt concentration,CatG [2]; 100 vs 200 mM salt,~10 fold
same,HS (Hill slope),CatG [2]; [NaCl] 100 mM,1.5 ± 0.3
same,IC50,CatG [2]; [NaCl] 100 mM,90 ± 10 nM
same,ΔY (efficacy),CatG [2]; [NaCl] 100 mM,82.5 ± 7.4%
same,Ki,CatG [2]; [NaCl] 100 mM,~75 nM
same,HS (Hill slope),CatG [2]; [NaCl] 200 mM,1.5 ± 0.3
same,IC50,CatG [2]; [NaCl] 200 mM,920 ± 150 nM
same,ΔY (efficacy),CatG [2]; [NaCl] 200 mM,75.2 ± 3.4%
same,Ki,CatG [2]; [NaCl] 200 mM,~910 nM
